The conditions of series [1]: Crystal; DTA.
The nature of series [2]: Molar enthalpy of transition or fusion. The note with it: Crystal; DSC.

Structures are written as SMILES. ± gives the expanded uncertainty stated by the source.

Turning to `O=C(Nc1ccc(F)cc1F)c1cccnc1Oc1cccc(C(F)(F)F)c1`, the Normal melting temperature in series [1] was 162.37 ± 0.61 °C. Moreover, in series [2], the “Molar enthalpy of transition or fusion” value was determined as 9.42 ± 0.22 kcal/mol.

The values above are taken from the NIST ThermoML archive (doi:10.1021/acs.jced.8b00632).
